Test system: human
Assay: Sensory evaluation of salty taste enhancing activity of compound of the present invention in human
Format: in vivo
Conditions: n=5; for salty taste enhancing rate (fold) middle and after taste: after 2 seconds; for salty taste enhancing rate (fold) initial taste: first 2 seconds
Method: The intensity of a salty taste enhancing activity and the strength of a bitter taste were examined by a quantitative sensory evaluation test for the compound of the present invention (compounds of Examples 11 and 51).
The quantitative sensory evaluation test was performed as follows. Distilled water containing sodium chloride (0.8 g/dl) was mixed with capsazepine as a sample at 0.001 g/dl, or the compound of Example 11 or Example 51 at 0.0001 to 0.001 g/dl, and the level of a salty taste enhancing activity was measured. Distilled water containing 0.8 g/dl of sodium chloride was used as a control, and distilled water containing 0.9 g/dl or 1.0 g/dl of sodium chloride was used as a comparison target. Using a linear measurement method, a straight line showing 1.0-fold (0.8 g/dl), 1.13-fold (0.9 g/dl), 1.25-fold (1.0 g/dl) positions of sodium chloride concentration was drawn and the position showing the strength of the corresponding salty taste was put down thereon. As for the strength of a bitter taste, using the bitter taste of a solution obtained by mixing distilled water containing sodium chloride (0.8 g/dl) with capsazepine at 0.0001 to 0.001 g/dl as the standard, the strength of the bitter taste of the solution obtained by mixing the compound of Example 11 or Example 51 at 0.0001 to 0.001 g/dl was relatively evaluated by comparison. The points were marked based on 0 point for no bitter taste, and 5.0 points for the strength of the bitter taste of a solution containing 0.001 g/dl capsazepine. The test was performed at n=5. […] The “initial taste” means the evaluation of the strength of the salty taste for 2 seconds after placing in the mouth, and the “middle and after taste” means a combination of middle taste and after taste, which is the evaluation of the strength of the salty taste after 2 seconds from placing in the mouth.

[1] = sample 0.0001 g/dl in 0.8 g/dl sodium chloride
[2] = sample 0.0005 g/dl in 0.8 g/dl sodium chloride
[3] = sample 0.001 g/dl in 0.8 g/dl sodium chloride

Row | SMILES | salty taste enhancing rate (fold) middle and after taste [1] [fold] | salty taste enhancing rate (fold) initial taste [1] [fold] | salty taste enhancing rate (fold) middle and after taste [2] [fold] | salty taste enhancing rate (fold) initial taste [2] [fold] | salty taste enhancing rate (fold) middle and after taste [3] [fold] | salty taste enhancing rate (fold) initial taste [3] [fold]
1 | C[C@@H](NC(=S)NCCc1ccccc1)c1ccccc1 [Example 11] | 1.10 | 1.10 | 1.14 | 1.15 | 1.14 | 1.13
2 | OC[C@@H](NC(=S)NCCc1ccccc1)c1ccccc1 [Example 51] | 1.11 | 1.09 | 1.17 | 1.13 | 1.17 | 1.17
3 | Oc1cc2c(cc1O)CN(C(=S)NCCc1ccc(Cl)cc1)CCC2 [capsazepine] | 1.11 | 1.11 |  |  |  | 

From US20140004243A1, “SALTY TASTE ENHANCER” (AJINOMOTO CO., INC., priority 2011, published 2014)
